Data reported in patent publication US20200222474A1, “COMPOSITIONS AND METHODS FOR INCREASING PHYTOCHEMICAL BIOAVAILABLITY AND BIOACTIVITY” (North Carolina State University, priority 2017, published 2020).

Tested on: L. acidophilus NCFM
Assay: RNA-seq transcriptional analysis of L. acidophilus NCFM growing on plant glycosides
Assay type: cell-based, Lactobacillus acidophilus
[1] = LBA0329 Putative cell division protein, COG D
[2] = LBA0466 Hypothetical protein, COG C
[3] = LBA0500 MSM operon repressor, COG K
[4] = LBA0545 Hypothetical protein, COG L
[5] = LBA0547 Putative site-specific recombinase, COG L
[6] = LBA0573 Putative transcriptional regulator, COG K
[7] = LBA0607 Putative transcriptional regulator, COG K
[8] = LBA0672 Putative phosphate starvation inducible protein stress related, COG J
[9] = LBA0753 Multi-drug-type permease, COG GEPR
[10] = LBA0886 Sugar kinase-putative transcriptional regulator, COG KG
[11] = LBA0887 Hypothetical protein, COG C
[12] = LBA0897 Putative Cro-like protein, COG K
[13] = LBA0910 L-lactate dehydrogenase, COG C
[14] = LBA1021 Putative transcriptional regulator, COG K
[15] = LBA1220 Pyridine mercuric reductase, COG C
[16] = LBA1392 Mucus binding protein precursor Mub, COG J
[17] = LBA1411 Fumarate reductase flavoprotein subunit, COG CS
[18] = LBA1436 Glycerol uptake facilitator protein, COG G
[19] = LBA1457 Galactose-1-epimerase, COG G
[20] = LBA1458 Galactose-1-phosphate uridylyltransferase, COG G
[21] = LBA1462 Beta-galactosidase, COG G
[22] = LBA1463 Lactose permease, COG G
[23] = LBA1465 Transcription repressor of beta-galactosidasegene, COG K
[24] = LBA1467 Beta-galactosidase large subunit (lactase), COG G
[25] = LBA1468 Beta-galactosidase small subunit, COG G
[26] = LBA1481 D-ribose-binding protein precursor, COG G
[27] = LBA1482 Ribose ABC transporter, COG G
[28] = LBA1483 Ribose ABC transporter ATP binding protein, COG G
[29] = LBA1484 D-ribose pyranase, COG G
[30] = LBA1494 Lincomycin-resistance protein, COG GEPR
[31] = LBA1607 Phosphatidylserine decarboxylase precursor, COG I
[32] = LBA1632 NAD-dependent aldehyde dehydrogenase, COG C
[33] = LBA1653 Nicotinamide mononucleotide, COG H
[34] = LBA1684 Putative PTS system IIA component, COG G
[35] = LBA1689 Maltose-6′-phosphate Oucosidase, COG G
[36] = LBA1700 Transcriptional regulator-type, COG K
[37] = LBA1701 Melibiose operon regulatory protein, COG K
[38] = LBA1705 PTS system IIBC component, COG G
[39] = LBA1708 Transcriptional antiterminator, COG K
[40] = LBA1710 Thermostable pullulanase, COG G
[41] = LBA1812 Alpha-glucosidase II, COG G
[42] = LBA1870 Maltose phosphorylase, COG G
[43] = LBA1872 Oligo-1,6-glucosidase, COG G
[44] = LBA1955 Transcription regulator family protein, COG K
[45] = gene LBA0046 (Hypothetical protein)
[46] = gene LBA0149 (Putative nucleotide-binding protein)
[47] = gene LBA0263 (Hypothetical protein)

## N#C[C@H](O[C@@H]1O[C@H](CO[C@@H]2O[C@H](CO)[C@@H](O)[C@H](O)[C@H]2O)[C@@H](O)[C@H](O)[C@H]1O)c1ccccc1 [Amygdalin]
LBA0016 Fructokinase, COG KG
  Log2 differential normalized TPM ratio compared to glucose: 2.4
  Log2 differential normalized TPM ratio compared to lactose: 1.2
  Transcripts per million (rpm): 387.4 rpm
[1]
  Log2 differential normalized TPM ratio compared to glucose: −0.1
  Log2 differential normalized TPM ratio compared to lactose: −0.5
  Transcripts per million (rpm): 12.3 rpm
[2]
  Log2 differential normalized TPM ratio compared to glucose: 5.2
  Log2 differential normalized TPM ratio compared to lactose: 3.7
  Transcripts per million (rpm): 2769.5 rpm
[3]
  Log2 differential normalized TPM ratio compared to glucose: 2
  Log2 differential normalized TPM ratio compared to lactose: 0.4
  Transcripts per million (rpm): 169.5 rpm
[4]
  Log2 differential normalized TPM ratio compared to glucose: 2
  Log2 differential normalized TPM ratio compared to lactose: 0
  Transcripts per million (rpm): 244.7 rpm
[5]
  Log2 differential normalized TPM ratio compared to glucose: 1.5
  Log2 differential normalized TPM ratio compared to lactose: −0.3
  Transcripts per million (rpm): 24.9 rpm
[6]
  Log2 differential normalized TPM ratio compared to glucose: −1.5
  Log2 differential normalized TPM ratio compared to lactose: −1.6
  Transcripts per million (rpm): 26.5 rpm
[7]
  Log2 differential normalized TPM ratio compared to glucose: 2.7
  Log2 differential normalized TPM ratio compared to lactose: 2.2
  Transcripts per million (rpm): 252.9 rpm
[8]
  Log2 differential normalized TPM ratio compared to glucose: 2.7
  Log2 differential normalized TPM ratio compared to lactose: 1.9
  Transcripts per million (rpm): 8689.6 rpm
[9]
  Log2 differential normalized TPM ratio compared to glucose: −0.6
  Log2 differential normalized TPM ratio compared to lactose: 0.1
  Transcripts per million (rpm): 26.1 rpm
[10]
  Log2 differential normalized TPM ratio compared to glucose: 2.2
  Log2 differential normalized TPM ratio compared to lactose: 2
  Transcripts per million (rpm): 25.1 rpm
[11]
  Log2 differential normalized TPM ratio compared to glucose: 2.4
  Log2 differential normalized TPM ratio compared to lactose: 1.2
  Transcripts per million (rpm): 247 rpm
[12]
  Log2 differential normalized TPM ratio compared to glucose: −2.3
  Log2 differential normalized TPM ratio compared to lactose: 0.2
  Transcripts per million (rpm): 0.4 rpm
[13]
  Log2 differential normalized TPM ratio compared to glucose: 3.9
  Log2 differential normalized TPM ratio compared to lactose: 2.9
  Transcripts per million (rpm): 1594.3 rpm
[14]
  Log2 differential normalized TPM ratio compared to glucose: −1.2
  Log2 differential normalized TPM ratio compared to lactose: −1.5
  Transcripts per million (rpm): 52.4 rpm
[15]
  Log2 differential normalized TPM ratio compared to glucose: 1.2
  Log2 differential normalized TPM ratio compared to lactose: 0.2
  Transcripts per million (rpm): 377.5 rpm
[16]
  Log2 differential normalized TPM ratio compared to glucose: 0.8
  Log2 differential normalized TPM ratio compared to lactose: 1.1
  Transcripts per million (rpm): 148.6 rpm
[17]
  Log2 differential normalized TPM ratio compared to glucose: 4
  Log2 differential normalized TPM ratio compared to lactose: 2.9
  Transcripts per million (rpm): 28.7 rpm
[18]
  Log2 differential normalized TPM ratio compared to glucose: 7.2
  Log2 differential normalized TPM ratio compared to lactose: 3.5
  Transcripts per million (rpm): 328.8 rpm
[19]
  Log2 differential normalized TPM ratio compared to glucose: 2.6
  Log2 differential normalized TPM ratio compared to lactose: −3
  Transcripts per million (rpm): 74.9 rpm
[20]
  Log2 differential normalized TPM ratio compared to glucose: 2.8
  Log2 differential normalized TPM ratio compared to lactose: −2.9
  Transcripts per million (rpm): 74 rpm
LBA1459 Galactokinase, COG G
  Log2 differential normalized TPM ratio compared to glucose: 1.8
  Log2 differential normalized TPM ratio compared to lactose: −2.8
  Transcripts per million (rpm): 70.3 rpm
[21]
  Log2 differential normalized TPM ratio compared to glucose: −0.5
  Log2 differential normalized TPM ratio compared to lactose: −6.5
  Transcripts per million (rpm): 10.2 rpm
[22]
  Log2 differential normalized TPM ratio compared to glucose: 0.2
  Log2 differential normalized TPM ratio compared to lactose: −4.5
  Transcripts per million (rpm): 50.7 rpm
LBA1464 Transposase, COG L
  Log2 differential normalized TPM ratio compared to glucose: −0.1
  Log2 differential normalized TPM ratio compared to lactose: −2.5
  Transcripts per million (rpm): 133.1 rpm
[23]
  Log2 differential normalized TPM ratio compared to glucose: −0.1
  Log2 differential normalized TPM ratio compared to lactose: −3.2
  Transcripts per million (rpm): 43.7 rpm
[24]
  Log2 differential normalized TPM ratio compared to glucose: 3.3
  Log2 differential normalized TPM ratio compared to lactose: −5.5
  Transcripts per million (rpm): 42.2 rpm
[25]
  Log2 differential normalized TPM ratio compared to glucose: 1.8
  Log2 differential normalized TPM ratio compared to lactose: −4.6
  Transcripts per million (rpm): 61.3 rpm
[26]
  Log2 differential normalized TPM ratio compared to glucose: 3
  Log2 differential normalized TPM ratio compared to lactose: 2.3
  Transcripts per million (rpm): 33 rpm
[27]
  Log2 differential normalized TPM ratio compared to glucose: 3.4
  Log2 differential normalized TPM ratio compared to lactose: 2.3
  Transcripts per million (rpm): 32.6 rpm
[28]
  Log2 differential normalized TPM ratio compared to glucose: 3.6
  Log2 differential normalized TPM ratio compared to lactose: 2.6
  Transcripts per million (rpm): 30.8 rpm
[29]
  Log2 differential normalized TPM ratio compared to glucose: 3.6
  Log2 differential normalized TPM ratio compared to lactose: 2.9
  Transcripts per million (rpm): 37.3 rpm
LBA1485 Ribokinase, COG G
  Log2 differential normalized TPM ratio compared to glucose: 3.5
  Log2 differential normalized TPM ratio compared to lactose: 2.8
  Transcripts per million (rpm): 29.8 rpm
[30]
  Log2 differential normalized TPM ratio compared to glucose: −0.7
  Log2 differential normalized TPM ratio compared to lactose: −0.8
  Transcripts per million (rpm): 2.6 rpm
[31]
  Log2 differential normalized TPM ratio compared to glucose: 2.6
  Log2 differential normalized TPM ratio compared to lactose: 1.6
  Transcripts per million (rpm): 102.4 rpm
[32]
  Log2 differential normalized TPM ratio compared to glucose: 4.4
  Log2 differential normalized TPM ratio compared to lactose: 2.6
  Transcripts per million (rpm): 1223.3 rpm
[33]
  Log2 differential normalized TPM ratio compared to glucose: −0.1
  Log2 differential normalized TPM ratio compared to lactose: −0.7
  Transcripts per million (rpm): 180.2 rpm
[34]
  Log2 differential normalized TPM ratio compared to glucose: 6.6
  Log2 differential normalized TPM ratio compared to lactose: 4.7
  Transcripts per million (rpm): 976.1 rpm
[35]
  Log2 differential normalized TPM ratio compared to glucose: 5.3
  Log2 differential normalized TPM ratio compared to lactose: 3.9
  Transcripts per million (rpm): 113.8 rpm
[36]
  Log2 differential normalized TPM ratio compared to glucose: 2.5
  Log2 differential normalized TPM ratio compared to lactose: 2.1
  Transcripts per million (rpm): 96.2 rpm
[37]
  Log2 differential normalized TPM ratio compared to glucose: 5.3
  Log2 differential normalized TPM ratio compared to lactose: 4.6
  Transcripts per million (rpm): 1323.5 rpm
[38]
  Log2 differential normalized TPM ratio compared to glucose: 2.7
  Log2 differential normalized TPM ratio compared to lactose: 1.9
  Transcripts per million (rpm): 18.5 rpm
[39]
  Log2 differential normalized TPM ratio compared to glucose: 2.8
  Log2 differential normalized TPM ratio compared to lactose: 1.4
  Transcripts per million (rpm): 3.3 rpm
[40]
  Log2 differential normalized TPM ratio compared to glucose: 2.1
  Log2 differential normalized TPM ratio compared to lactose: 1.7
  Transcripts per million (rpm): 26.7 rpm
LBA1723 Transposase, COG L
  Log2 differential normalized TPM ratio compared to glucose: 2
  Log2 differential normalized TPM ratio compared to lactose: 1.8
  Transcripts per million (rpm): 176.9 rpm
[41]
  Log2 differential normalized TPM ratio compared to glucose: 5.3
  Log2 differential normalized TPM ratio compared to lactose: 3.2
  Transcripts per million (rpm): 520.3 rpm
[42]
  Log2 differential normalized TPM ratio compared to glucose: 2.7
  Log2 differential normalized TPM ratio compared to lactose: 3.9
  Transcripts per million (rpm): 539.7 rpm
LBA1871 Neopullulanase, COG G
  Log2 differential normalized TPM ratio compared to glucose: 4.3
  Log2 differential normalized TPM ratio compared to lactose: 3.6
  Transcripts per million (rpm): 43.6 rpm
[43]
  Log2 differential normalized TPM ratio compared to glucose: 3.6
  Log2 differential normalized TPM ratio compared to lactose: 3.2
  Transcripts per million (rpm): 30 rpm
LBA1873 Acetate kinase, COG C
  Log2 differential normalized TPM ratio compared to glucose: 4.6
  Log2 differential normalized TPM ratio compared to lactose: 3.2
  Transcripts per million (rpm): 67.3 rpm
LBA1878 Glycerol kinase, COG C
  Log2 differential normalized TPM ratio compared to glucose: 1.4
  Log2 differential normalized TPM ratio compared to lactose: 1.3
  Transcripts per million (rpm): 17.8 rpm
[44]
  Log2 differential normalized TPM ratio compared to glucose: 3.8
  Log2 differential normalized TPM ratio compared to lactose: 4.2
  Transcripts per million (rpm): 5835.9 rpm
RNA-seq, compared to glucose
  number of up-regulated genes: 116 genes
RNA-seq, up-regulated genes not shared with the other PGs
  number of uniquely induced genes: 58
[45]
  Log2 differential normalized TPM ratio compared to glucose: −3
  Log2 differential normalized TPM ratio compared to lactose: −3.8
  Transcripts per million (rpm): 29.9 rpm
[46]
  Log2 differential normalized TPM ratio compared to glucose: 2
  Log2 differential normalized TPM ratio compared to lactose: 1.2
  Transcripts per million (rpm): 1625.4 rpm
[47]
  Log2 differential normalized TPM ratio compared to glucose: 2.1
  Log2 differential normalized TPM ratio compared to lactose: 1.4
  Transcripts per million (rpm): 55.9 rpm
